# Where “and” joins values, the source holds several entries; their conditions need not be identical. Equal values may be shown once. Marks after values point to notes of the source that are not given here.
# Assays:
# Staphylococcal aureus = test: MIC determination assay / antibiotic activity of synthetic BT variants; type: cell-based; settings: FIG. 6B
# Procedure: (§1) MIC determination assays. Staphylococcal aureus was grown to mid-log phase in LB at 37° C., and diluted by 500-fold with fresh LB and dispensed into 96-well micro-titer plates. Different concentrations of peptides were added, and the micro-titer plates were incubated at 37° C. with shaking. A minimal inhibition concentration (MIC) was determined as the lowest peptide concentration that produced a clear well. All experiments were performed in triplicates, and highly consistent MICs were obtained.
# Gram-positive bacteria = test: In vitro antibacterial MIC, Gram-positive bacteria; type: cell-based; settings: most Gram (+)
# Procedure: as §1
# (§2) For Gram (−) the following were the antimicrobial activities observed: E. coli: MIC>20 microgram/ml; Pseudomonas and Salmonella: MIC>100 microgram/ml.
# E. coli = test: In vitro antimicrobial MIC, E. coli; type: cell-based
# Procedure: as §1, §2
# Pseudomonas = test: In vitro antimicrobial MIC, Pseudomonas; type: cell-based
# Procedure: as §1, §2
# Salmonella = test: In vitro antimicrobial MIC, Salmonella; type: cell-based
# Procedure: as §1, §2
# S. cerevisiae = test: In vitro antifungal MIC; type: cell-based
# Tetrahymena = test: In vitro anti-protozoal MIC; type: cell-based
# [1] = type: physicochemical; settings: pH 1.0 plus 100° C. overnight
# Broiler Chicken [2] = test: Growth promoting battery Studies 1-1 and 1-2; type: in vivo
# straight run broilers [3] = test: Growth and feed conversion of 20-day old broilers in batteries, mash feed (Studies 2-1 and 2-2); type: in vivo, chicken
# Procedure: Briefly, the peptide was used in a semi-purified form to study the growth and feed conversion of […] old straight run broilers in batteries (Studies 2-1 and 2-2). Two amounts were tested against a feed control, peptide at 6 ppm and peptide at 12 ppm, 12 repetitions were carried out per treatment with 4 birds per pen. The diet used in the study was as follows.
# straight run broilers [4] = test: Growth and feed conversion of 3-wk old broilers in batteries, pelleted starter feed (Studies 3-1 and 3-2); type: in vivo, chicken
# Source text: Eight (8) study repetitions per treatment were used, again with 4 birds per pen.
# Broiler Chicken [5] = test: Growth promoting Studies 4-1 and 4-2 with direct coccidial challenge; type: in vivo
# broiler chickens = test: 42-day broiler floor pen trial with natural colibacillosis challenge; type: in vivo, chicken
# Procedure: A broiler floor pen trial to compare the performance of a new anti-microbial designated for this project as BT1583 alone and in combination with the widely used coccidiostat monensin (MON) to MON fed alone, MON in combination with the also widely used antimicrobial Bacitracin MD (BMD) and BMD alone.
# The following levels of each treatment were evaluated:
# The study design included 10 pens per treatment and 40 birds per pen housed on day of hatch. Two basal corn-soy based diets of decreasing protein (approximately 23 to 20%) and increasing metabolizable energy (approximately 1400 to 1455 kcal/lb) were used from Day 0 to 21 (starter feed) and Days 22 to 42 (grower feed), respectively. Treatment premixes were measured and blended into diets at required levels. Between days 0 and 21 mortality was less than 1% with all birds growing optimally and of high health across all groups.
# Beginning on study day 22, the study director modulated house temperature and air flow to mimic industry conditions conducive to outbreaks of colibacillosis within naïve broiler flocks. This was done to stimulate a natural challenge for this study. Mortality climbed to a house average of approximately 10% by Day 42. A majority of these deaths occurred in groups not receiving BT1583 or MON. Lesions were consistent with those of colibacillosis (air sac, pneumonia, peri-hepatitis, peri-carditis and extreme morbidity). All mortality was documented (weight at death and post-mortem observations). All birds and feeds were weighed at 42 days. All remaining birds were euthanized on Day 42 by asphyxiation with the carcasses submitted for rendering.
# The following variables were tested: Response Variables: Gain Per Bird, Feed Per Gain, Mortality (%), Adjusted Feed Per Gain. F test from One Way ANOVA with one blocking factor=location, at Day 42 using 0.05 level of significance.
# All Response Variables: LSD T-test procedure for pair-wise comparisons with Type 1 error of means when ANOVA F ratio is significant, overall significance level of 0.05 used. Lines below means (see Table 30, below) indicate groups with insignificant differences in means.
# Adjusted Feed/Gain: The total weight of mortality in each pen was added to the final live weight, that value reduced by subtracting the initial weight and then dividing that value into the Total feed consumed to calculate the Adjusted Feed/Gain.
# food-producing animals = test: Growth promotion in food-producing animals (overall statement); type: in vivo, chicken; settings: used to promote growth
# Source text: Alternatively, but in no way limiting the present invention, the present invention may be used as an animal-use only antibiotic for bacterial infections.
# carboxypeptidase Y = molecular target: T1, carboxypeptidase Y (Saccharomyces cerevisiae, UniProt P00729)
# T1 sequence (P00729 112-532): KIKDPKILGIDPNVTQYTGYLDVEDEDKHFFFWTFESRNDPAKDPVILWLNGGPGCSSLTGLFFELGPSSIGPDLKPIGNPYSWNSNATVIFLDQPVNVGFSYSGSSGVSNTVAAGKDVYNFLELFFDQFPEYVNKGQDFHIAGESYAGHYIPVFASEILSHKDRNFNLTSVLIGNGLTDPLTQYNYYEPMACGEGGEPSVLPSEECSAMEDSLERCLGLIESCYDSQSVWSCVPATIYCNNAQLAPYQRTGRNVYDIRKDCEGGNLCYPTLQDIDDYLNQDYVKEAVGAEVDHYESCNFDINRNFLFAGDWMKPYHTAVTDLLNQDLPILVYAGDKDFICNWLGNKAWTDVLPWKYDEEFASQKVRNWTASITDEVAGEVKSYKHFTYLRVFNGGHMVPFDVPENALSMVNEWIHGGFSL
# [6] = BT1583 12 ppm, BMD 50 ppm, COB 90 ppm, alone or combined, pelleted feed
# [7] = Study 4-1, 24 ppm with direct coccidial challenge
# [8] = Study 4-2, 48 ppm with direct coccidial challenge
# [9] = MON 99 ppm, BT1583 12 ppm, BMD 55 ppm, alone or combined
substance,measurement,setting,value
Me2Bmt-L-dO-I-V-V-dK-V-dL-K-dY-L-V-CH2OH [BT1583],antibiotic activity,Staphylococcal aureus,full antibiotic activity
same,MIC,Gram-positive bacteria,1 microgram/ml
same,MIC,E. coli,> 20 microgram/ml
same,MIC,Pseudomonas,> 100 microgram/ml
same,MIC,Salmonella,> 100 microgram/ml
same,MIC,S. cerevisiae,50 microgram/ml
same,MIC,Tetrahymena,25 microgram/ml
same,in vitro inactivation,[1],only known in vitro method to inactivate it is pH 1.0 plus 100 °C overnight
same,Additional weight gain (%),"Broiler Chicken [2]; Study 1-1, 10 ppm",17%
same,Feed conversion improvement (point),"Broiler Chicken [2]; Study 1-1, 10 ppm",7 point
same,Additional weight gain (%),"Broiler Chicken [2]; Study 1-2, 30 ppm",17%
same,Feed conversion improvement (point),"Broiler Chicken [2]; Study 1-2, 30 ppm",8 point
same,"20-day cumulative feed conversion rate, Mean",straight run broilers [3]; 6 ppm in mash feed,1.5065 and 1.506
same,"20-day cumulative weight gain, Mean",straight run broilers [3]; 6 ppm in mash feed,591.975
same,"20-day cumulative feed conversion rate, Mean",straight run broilers [3]; 12 ppm in mash feed,1.4959 and 1.496
same,"20-day cumulative weight gain, Mean",straight run broilers [3]; 12 ppm in mash feed,618.934
same,Additional weight gain (%),"straight run broilers [3]; Study 2-1, 6 ppm",6.7%
same,Feed conversion improvement (point),"straight run broilers [3]; Study 2-1, 6 ppm",9 point
same,Additional weight gain (%),"straight run broilers [3]; Study 2-2, 12 ppm",11%
same,Feed conversion improvement (point),"straight run broilers [3]; Study 2-2, 12 ppm",10 point
same,"20-day cumulative feed conversion rate, Mean",straight run broilers [4]; [6],1.3308
same,"21-day cumulative feed conversion rate, Estimated Marginal Mean",straight run broilers [4]; [6],1.331
same,"21-day cumulative weight gain, Mean",straight run broilers [4]; [6],831.7396 and 831.740
same,Additional weight gain (%),"straight run broilers [4]; Study 3-1, 12 ppm",16%
same,Feed conversion improvement (point),"straight run broilers [4]; Study 3-1, 12 ppm",9 point
same,Additional weight gain (%),"straight run broilers [4]; Study 3-2, 12 ppm with Coban",5.4%
same,Feed conversion improvement (point),"straight run broilers [4]; Study 3-2, 12 ppm with Coban (vs Coban alone)",9 point
same,Additional weight gain (%),Broiler Chicken [5]; [7],7.1%
same,Feed conversion improvement (point),Broiler Chicken [5]; [7],13 point
same,Additional weight gain (%),Broiler Chicken [5]; [8],9.3%
same,Feed conversion improvement (point),Broiler Chicken [5]; [8],17 point
same,efficacy against colibacillosis,"broiler chickens; 3 to 4 week old naïve broiler chickens, simulated commercial conditions",highly effective
same,feed/gain advantage over monensin and BMD fed alone and in combination,broiler chickens; Day 42,≥ 10 point
same,weight gain advantage over monensin and BMD fed alone and in combination,broiler chickens; Day 42,≥ 20 point
same,Day 42 Feed/Gain,broiler chickens; [9],1.722^ab
same,Day 42 Gain/Bird,broiler chickens; [9],4.333^ab lb
same,Day 42 Mortality (%),"broiler chickens; acute and chronic colibacillosis, MON 99 ppm, BT1583 12 ppm, BMD 55 ppm",2.75^a %
same,Day 42 Adjusted Feed/Gain,"broiler chickens; adjusted for weight of mortality, MON 99 ppm, BT1583 12 ppm, BMD 55 ppm",1.704^ab
same,mortality rate compared with non-supplemented controls,broiler chickens; alone or in combination,lower mortality rates
same,feed conversion gain,food-producing animals,about 10 points
same,cleavage by carboxypeptidase Y,carboxypeptidase Y,resistant

# From US20090175981A1, “COMPOSITIONS, METHODS AND USES FOR A NOVEL FAMILY OF PEPTIDES” (priority 2004, published 2009)
